Assay results reported in the NIST ThermoML archive (doi:10.1007/s10765-013-1553-5).
± gives the expanded uncertainty stated by the source.

Conditions: Liquid, Closed cell (Static) method

F/C=C\C(F)(F)F [(Z)-1,3,3,3-tetrafluoro-1-propene]
Conditions	vapor or sublimation pressure [kPa]
238.13 K	12 ± 2
243.1 K	16 ± 2
248 K	21 ± 2
252.9 K	27 ± 2
257.81 K	34 ± 2
263.02 K	44 ± 2
267.91 K	55 ± 2
272.83 K	68 ± 2
277.94 K	85 ± 2
282.78 K	102 ± 2
283.15 K	103 ± 2
285.15 K	111 ± 2
287.15 K	120 ± 2
287.62 K	123 ± 2
289.15 K	129 ± 2
291.15 K	139 ± 2
292.62 K	148 ± 2
293.15 K	149 ± 2
295.15 K	160 ± 2
297.15 K	172 ± 2
298 K	178 ± 2
299.15 K	184 ± 2
301.15 K	198 ± 2
303.15 K	211 ± 2
303.18 K	212 ± 2
305.15 K	225 ± 2
307.15 K	241 ± 2
308.18 K	249 ± 2
309.15 K	256 ± 2
311.15 K	273 ± 2
313.15 K	291 ± 2
313.17 K	291 ± 2
315.15 K	309 ± 2
317.15 K	329 ± 2
318.14 K	338 ± 2
319.15 K	349 ± 2
321.14 K	370 ± 2
323.14 K	392 ± 2
323.15 K	392 ± 2
325.15 K	415 ± 2
327.15 K	439 ± 2
328.12 K	451 ± 2
329.15 K	465 ± 2
331.15 K	491 ± 2
333.11 K	518 ± 2
333.15 K	519 ± 2
335.15 K	548 ± 2
337.15 K	578 ± 2
338.12 K	591 ± 2
339.15 K	609 ± 3
341.15 K	641 ± 3
343.07 K	672 ± 3
343.15 K	675 ± 3
345.15 K	710 ± 3
347.16 K	746 ± 3
348.16 K	764 ± 3
349.15 K	784 ± 3
351.15 K	823 ± 3
353.12 K	861 ± 3
353.16 K	863 ± 3
358.13 K	969 ± 3
363.14 K	1086 ± 3
368.09 K	1212 ± 3
372.61 K	1336 ± 4
